From patent US20210003596A1, “CHEMILUMINESCENT ANDROSTENEDIONE CONJUGATES” (Siemens Healthcare Diagnostics Inc., priority 2017, published 2021) come the findings set out here.

Holding throughout (assay): Competitive chemiluminescent immunoassay (ADVIA Centaur), binding of A4-AE conjugates to antibody on solid phase
Holding throughout (parameters): species or system sheep; key: a “+” indicates appreciable binding of the specified A4-AE conjugate to the specified antibody; a “−” indicates no appreciable binding was observed

Assay [1] deals with monoclonal androstenedione antibody 3C3. The following applies: binding of A4-AE conjugate to 3C3 antibody, chemiluminescence; lite reagent 20 ng/mL tracer. How it is done:
(§1) Evaluation of A4-AE conjugates was performed using the ADVIA Centaur family of immunoassay analyzers (available from Siemens Healthcare Diagnostics Inc., Tarrytown, N.Y.) using a competitive assay format which utilizes a solid phase reagent and a lite reagent. The lite reagent comprises 20 ng/mL of an A4-AE tracer compound. The solid reagent comprises superparamagnetic beads (Dynabeads® M-270 Streptavidin available from ThermoFisher Scientific) labeled with biotinylated monoclonal anti-A4 antibody. Biotinylated sheep monoclonal androstenedione antibodies 3C3, 3H10, or 4G8 (available from Bioventix, UK) are introduced to the streptavidin coated superparamagnetic beads in order to produce solid phase particles attached to the antibody. Solid phase particles mixed with A4-AE in the absence of A4, results in solid phase binding complexes with the A4-AE compounds. When the […], competition for formation of a binding complex at each antibody occurs between A4 and A4-AE conjugates. […] Therefore, an increase in androstenedione concentration in measured samples correlates with a decrease in chemiluminescence of separated and washed solid phase particles binding complexes. Chemiluminescence of the separated solid phase particle binding complexes is induced by addition of an acidic solution (0.5% Peroxide/0.45% Nitric Acid (vol/vol)) followed by a basic solution (0.25N […]/0.45% ARQUAD® 16-50 (w/v)) and measured. Reagent volumes, concentrations, and assay parameters were otherwise identical in each experiment other than variation of the A4-AE tracer conjugate measured. Samples of androstenedione used in the lite reagent were prepared using a human serum albumin-based matrix (available from Bioresource Technology, Inc.) with the androstenedione sample concentrations shown in FIGS. 2A-2D (ng/mL).
(§2) Chemiluminescence was monitored for a variety of A4-AE conjugates. Table 2 below and the corresponding FIGS. 2A-2D summarize the results of chemiluminescent experiments on several A4-AE conjugates which may be synthesized as described in the indicated Example number. In Table 3 a “+” indicates appreciable binding of the specified A4-AE conjugate to the specified antibody and a “−” indicates no appreciable binding was observed.

Assay [2] concerns monoclonal androstenedione antibody 3H10. The following applies: binding of A4-AE conjugate to 3H10 antibody, chemiluminescence; lite reagent 20 ng/mL tracer. Here is the method: as §1, §2
Assay [3] concerns monoclonal androstenedione antibody 4G8. The following applies: binding of A4-AE conjugate to 4G8 antibody, chemiluminescence; lite reagent 20 ng/mL tracer. How it is done:
as §1, §2

Take A4(3)-CMO-Z-ZAE [compound 1]: the 3C3 entry in assay [1] is reported as “+”. Also, the 3H10 entry in assay [2] is reported as “+”. Further, in assay [3], the 4G8 result was “−”.
For `Cc1cc(C(=O)NCCC[N+](C)(CCCNC(=O)COC[C@]23CCC(=O)C=C2CCC2C3CC[C@]3(C)C(=O)CCC23)CCCS(=O)(=O)[O-])cc(C)c1OC(=O)c1c2ccccc2[n+](CCCS(=O)(=O)[O-])c2ccccc12` (stereo partly drawn) [compound 3, A4(19)-CME-NH-Z-ZAE], the 3C3 entry in assay [1] is given as “−”. Besides, the 3H10 entry in assay [2] is on record as “+”. Also, the 4G8 entry in assay [3] is “+”.
In the case of `Cc1cc(C(=O)NCCC[N+](C)(CCCNC(=O)CCC(=O)OC2CC3C4CCC(=O)C4(C)CCC3C3(C)CCC(=O)C=C23)CCCS(=O)(=O)[O-])cc(C)c1OC(=O)c1c2ccccc2[n+](CCCS(=O)(=O)[O-])c2ccccc12` (stereo not drawn) [compound 4, A4(6β)-hemisuccinate-NH-Z-ZAE], in assay [1], the 3C3 entry is recorded as “+”. Also, the 3H10 result in assay [2] is reported as “+”. Besides, in assay [3], the 4G8 result is reported as “+”.
As to `Cc1cc(C(=O)NCCC[N+](C)(CCCNC(=O)CCSC2CC3=CC(=O)CCC3(C)C3CCC4(C)C(=O)CCC4C23)CCCS(=O)(=O)[O-])cc(C)c1OC(=O)c1c2ccccc2[n+](CCCS(=O)(=O)[O-])c2ccccc12` (stereo not drawn) [compound 6, A4(7α)-CETE-NH-Z-ZAE], in assay [1], the 3C3 result is “+”. Further, the 3H10 entry in assay [2] is on record as “+”. Moreover, the 4G8 result in assay [3] was “+”.
On to `Cc1cc(C(=O)NCCC[N+](C)(CCCNC(=O)CON=C2CCC3C4CCC5=CC(=O)CCC5(C)C4CCC23C)CCCS(=O)(=O)[O-])cc(C)c1OC(=O)c1c2ccccc2[n+](CCCS(=O)(=O)[O-])c2ccccc12` (stereo not drawn) [compound 2, A4(17)-CMO-Z-ZAE], for which the 3C3 entry in assay [1] is given as “−”. In addition, in assay [2], the 3H10 result is on record as “−”. In addition, in assay [3], the 4G8 result is listed as “−”.
For the compound `Cc1cc(C(=O)NCCC[N+](C)(CCCNC(=O)OC2CC3C4CCC(=O)C4(C)CCC3C3(C)CCC(=O)C=C23)CCCS(=O)(=O)[O-])cc(C)c1OC(=O)c1c2ccccc2[n+](CCCS(=O)(=O)[O-])c2ccccc12` (stereo not drawn) [compound 5, A4(6β)-carbamate-NH-Z-ZAE], the 3C3 result in assay [1] is reported as “−”. Further, in assay [2], the 3H10 result is reported as “−”. Besides, the 4G8 entry in assay [3] is on record as “−”.
